Measurements: BindingDB's records for doi:10.1021/jm070370z (Ligand Pharmaceuticals, 2007)

These compounds were tested against T1, Glucocorticoid receptor (Homo sapiens, UniProt P04150) (assay: GR-Mediated Antagonist Activity Assay and IL-6 Repression Assay). Conditions: pH 7.5.
T1 sequence (P04150 whole entry): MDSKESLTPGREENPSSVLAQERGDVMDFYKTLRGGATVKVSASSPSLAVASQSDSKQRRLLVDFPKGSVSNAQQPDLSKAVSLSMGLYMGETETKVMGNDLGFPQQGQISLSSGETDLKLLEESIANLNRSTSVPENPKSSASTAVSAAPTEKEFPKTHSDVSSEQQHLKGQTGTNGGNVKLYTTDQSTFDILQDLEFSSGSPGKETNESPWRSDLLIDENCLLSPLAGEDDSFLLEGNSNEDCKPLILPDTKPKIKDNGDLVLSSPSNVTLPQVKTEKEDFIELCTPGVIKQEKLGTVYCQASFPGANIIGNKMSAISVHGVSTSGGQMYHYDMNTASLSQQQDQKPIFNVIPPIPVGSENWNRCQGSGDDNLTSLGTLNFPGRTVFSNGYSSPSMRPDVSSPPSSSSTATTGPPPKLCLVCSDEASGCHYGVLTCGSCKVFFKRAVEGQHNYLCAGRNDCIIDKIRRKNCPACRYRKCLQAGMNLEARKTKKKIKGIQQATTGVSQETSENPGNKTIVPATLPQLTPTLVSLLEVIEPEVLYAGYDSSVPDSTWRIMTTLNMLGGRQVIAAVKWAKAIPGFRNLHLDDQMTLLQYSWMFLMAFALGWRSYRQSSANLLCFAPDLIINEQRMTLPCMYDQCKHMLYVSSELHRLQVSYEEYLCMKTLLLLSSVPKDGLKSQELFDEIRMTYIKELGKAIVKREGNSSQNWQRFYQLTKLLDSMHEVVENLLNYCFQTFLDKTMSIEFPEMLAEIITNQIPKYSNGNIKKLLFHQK
Experimental: Potencies of compounds are reported as the concentration at which they reach half their antagonist (IC50) activity. IL-6 Repression Assay- The GR-mediated repression of IL-6 production in a human fibroblast (NHDFneo) cell line is measured with a modified ELISA assay.

SMILES | IC50 [nM] | EC50 [nM]
COc1c(O)ccc2c1-c1ccc3c(c1C(=Cc1sccc1C(=O)C1CCCCC1)O2)C(C)=CC(C)(C)N3 [(18Z)-18-[(3-cyclohexanecarbonylthiophen-2-yl)methylidene]-12-methoxy-3,5,5-trimethyl-17-oxa-6-azatetracyclo[8.8.0.0^{2,7}.0^{11,16}]octadeca-1(10),2(7),3,8,11,13,15-heptaen-13-ol] | 1 | –
COc1c(O)ccc2c1-c1ccc3c(c1/C(=C/c1sccc1[C@H](O)C(F)(F)F)O2)C(C)=CC(C)(C)N3 [(18Z)-12-methoxy-3,5,5-trimethyl-18-({3-[(1S)-2,2,2-trifluoro-1-hydroxyethyl]thiophen-2-yl}methylidene)-17-oxa-6-azatetracyclo[8.8.0.0^{2,7}.0^{11,16}]octadeca-1(10),2(7),3,8,11,13,15-heptaen-13-ol] | 0.2 | 0.2
COc1c(O)ccc2c1-c1ccc3c(c1/C(=C/c1sccc1[C@@H](O)C(F)(F)F)O2)C(C)=CC(C)(C)N3 [(18Z)-12-methoxy-3,5,5-trimethyl-18-({3-[(1R)-2,2,2-trifluoro-1-hydroxyethyl]thiophen-2-yl}methylidene)-17-oxa-6-azatetracyclo[8.8.0.0^{2,7}.0^{11,16}]octadeca-1(10),2(7),3,8,11,13,15-heptaen-13-ol] | 0.6 | 1.4
CCCCC(O)c1ccsc1/C=C1\Oc2ccc(O)c(OC)c2-c2ccc3c(c21)C(C)=CC(C)(C)N3 (stereo unspecified) [(18Z)-18-{[3-(1-hydroxypentyl)thiophen-2-yl]methylidene}-12-methoxy-3,5,5-trimethyl-17-oxa-6-azatetracyclo[8.8.0.0^{2,7}.0^{11,16}]octadeca-1(10),2(7),3,8,11,13,15-heptaen-13-ol] | 0.9 | –
